Test results: the CheMixHub viscosity set
Where “and” joins values, the source holds several entries; their conditions need not be identical. Equal values may be shown once.

Test: xn = mol fraction of the nth substance listed

CC(C)(C)O + O
Conditions	viscosity
298.15 K, 100 kPa, x1 = 0.1	3.149 mPa·s
298.15 K, 100 kPa, x1 = 0.25	4.729 mPa·s
298.15 K, 100 kPa, x1 = 0.3	4.782 mPa·s
298.15 K, 100 kPa, x1 = 0.4	4.889 mPa·s
298.15 K, 100 kPa, x1 = 0.5	4.646 mPa·s
298.15 K, 100 kPa, x1 = 0.75	4.225 mPa·s
298.15 K, 101 kPa, x1 = 0.026	1.506 mPa·s
298.15 K, 101 kPa, x1 = 0.057	2.309 mPa·s
298.15 K, 101 kPa, x1 = 0.094	3.123 mPa·s
298.15 K, 101 kPa, x1 = 0.14	3.797 mPa·s
298.15 K, 101 kPa, x1 = 0.2	4.311 mPa·s
298.15 K, 101 kPa, x1 = 0.27	4.715 mPa·s
298.15 K, 101 kPa, x1 = 0.36	4.835 mPa·s
298.15 K, 101 kPa, x1 = 0.49	4.73 mPa·s
298.15 K, 101 kPa, x1 = 0.69	4.355 mPa·s
298.15 K, 101.33 kPa, x1 = 0.02	1.315 mPa·s and 1.33 mPa·s and 1.27 mPa·s
298.15 K, 101.33 kPa, x1 = 0.0206	1.337 mPa·s
298.15 K, 101.33 kPa, x1 = 0.026	1.52 mPa·s and 1.45 mPa·s
298.15 K, 101.33 kPa, x1 = 0.0397	1.85 mPa·s
298.15 K, 101.33 kPa, x1 = 0.04	1.89 mPa·s and 1.79 mPa·s
298.15 K, 101.33 kPa, x1 = 0.0447	2.015 mPa·s
298.15 K, 101.33 kPa, x1 = 0.057	2.35 mPa·s and 2.19 mPa·s
298.15 K, 101.33 kPa, x1 = 0.06	2.379 mPa·s and 2.42 mPa·s and 2.26 mPa·s
298.15 K, 101.33 kPa, x1 = 0.0745	2.78 mPa·s
298.15 K, 101.33 kPa, x1 = 0.0798	2.818 mPa·s
298.15 K, 101.33 kPa, x1 = 0.094	3.16 mPa·s and 2.97 mPa·s
298.15 K, 101.33 kPa, x1 = 0.1	3.26 mPa·s and 3.05 mPa·s
298.15 K, 101.33 kPa, x1 = 0.101	3.238 mPa·s
298.15 K, 101.33 kPa, x1 = 0.1121	3.55 mPa·s
298.15 K, 101.33 kPa, x1 = 0.1181	3.532 mPa·s
298.15 K, 101.33 kPa, x1 = 0.139	3.88 mPa·s and 3.66 mPa·s
298.15 K, 101.33 kPa, x1 = 0.1395	3.842 mPa·s
298.15 K, 101.33 kPa, x1 = 0.1574	4.288 mPa·s
298.15 K, 101.33 kPa, x1 = 0.1609	4.176 mPa·s
298.15 K, 101.33 kPa, x1 = 0.196	4.47 mPa·s and 4.41 mPa·s
298.15 K, 101.33 kPa, x1 = 0.198	4.441 mPa·s
298.15 K, 101.33 kPa, x1 = 0.2199	4.888 mPa·s
298.15 K, 101.33 kPa, x1 = 0.267	4.89 mPa·s and 4.86 mPa·s
298.15 K, 101.33 kPa, x1 = 0.3027	4.984 mPa·s
298.15 K, 101.33 kPa, x1 = 0.3035	5.292 mPa·s
298.15 K, 101.33 kPa, x1 = 0.362	4.99 mPa·s and 4.96 mPa·s
298.15 K, 101.33 kPa, x1 = 0.4285	5.484 mPa·s
298.15 K, 101.33 kPa, x1 = 0.4313	5.285 mPa·s
298.15 K, 101.33 kPa, x1 = 0.4315	5.316 mPa·s
298.15 K, 101.33 kPa, x1 = 0.493	4.86 mPa·s and 4.86 mPa·s
298.15 K, 101.33 kPa, x1 = 0.4939	5.199 mPa·s
298.15 K, 101.33 kPa, x1 = 0.5001	4.811 mPa·s
298.15 K, 101.33 kPa, x1 = 0.5965	4.912 mPa·s
298.15 K, 101.33 kPa, x1 = 0.686	4.48 mPa·s and 4.5 mPa·s
298.15 K, 101.33 kPa, x1 = 0.6961	4.646 mPa·s
298.15 K, 101.33 kPa, x1 = 0.6976	4.409 mPa·s
298.15 K, 101.33 kPa, x1 = 0.7888	4.392 mPa·s
298.15 K, 101.33 kPa, x1 = 0.7907	4.397 mPa·s
298.15 K, 101.33 kPa, x1 = 0.7931	4.254 mPa·s
298.15 K, 101.33 kPa, x1 = 0.822	4.27 mPa·s and 4.28 mPa·s
298.15 K, 101.33 kPa, x1 = 0.8932	4.308 mPa·s
298.15 K, 101.33 kPa, x1 = 0.9088	4.222 mPa·s
298.15 K, 101.33 kPa, x1 = 0.9422	4.288 mPa·s
298.15 K, 101.33 kPa, x1 = 0.96	4.37 mPa·s and 4.41 mPa·s
298.15 K, 101.33 kPa, x1 = 0.9734	4.408 mPa·s
303 K, 101 kPa, x2 = 0.3	3.527 mPa·s
303 K, 101 kPa, x2 = 0.5	3.881 mPa·s
303 K, 101 kPa, x2 = 0.65	3.975 mPa·s
303 K, 101 kPa, x2 = 0.91	2.475 mPa·s
303 K, 101 kPa, x2 = 0.95	1.772 mPa·s
303.2 K, 101.33 kPa, x2 = 0.05	3.236 mPa·s
303.2 K, 101.33 kPa, x2 = 0.1	3.214 mPa·s
303.2 K, 101.33 kPa, x2 = 0.15	3.247 mPa·s
303.2 K, 101.33 kPa, x2 = 0.2	3.309 mPa·s
303.2 K, 101.33 kPa, x2 = 0.3	3.455 mPa·s
303.2 K, 101.33 kPa, x2 = 0.4	3.599 mPa·s
303.2 K, 101.33 kPa, x2 = 0.5	3.743 mPa·s
303.2 K, 101.33 kPa, x2 = 0.6	3.877 mPa·s
303.2 K, 101.33 kPa, x2 = 0.7	3.836 mPa·s
303.2 K, 101.33 kPa, x2 = 0.8	3.541 mPa·s
303.2 K, 101.33 kPa, x2 = 0.85	3.182 mPa·s
303.2 K, 101.33 kPa, x2 = 0.9	2.604 mPa·s
303.2 K, 101.33 kPa, x2 = 0.95	1.738 mPa·s
304 K, 101 kPa, x2 = 0.75	3.646 mPa·s
305 K, 101 kPa, x2 = 0.1	3.026 mPa·s
308.15 K, 101 kPa, x1 = 0.05	1.541 mPa·s
308.15 K, 101 kPa, x1 = 0.1	2.188 mPa·s
308.15 K, 101 kPa, x1 = 0.2	2.951 mPa·s
308.15 K, 101 kPa, x1 = 0.3	3.186 mPa·s
308.15 K, 101 kPa, x1 = 0.4	3.219 mPa·s
308.15 K, 101 kPa, x1 = 0.5	3.116 mPa·s
308.15 K, 101 kPa, x1 = 0.6	2.973 mPa·s
308.15 K, 101 kPa, x1 = 0.7	2.837 mPa·s
308.15 K, 101 kPa, x1 = 0.8	2.701 mPa·s
308.15 K, 101 kPa, x1 = 0.9	2.635 mPa·s
308.15 K, 101 kPa, x1 = 0.95	2.606 mPa·s
313 K, 101 kPa, x2 = 0.1	2.146 mPa·s
313 K, 101 kPa, x2 = 0.3	2.33 mPa·s
313 K, 101 kPa, x2 = 0.5	2.586 mPa·s
313 K, 101 kPa, x2 = 0.65	2.674 mPa·s
313 K, 101 kPa, x2 = 0.75	2.587 mPa·s
313 K, 101 kPa, x2 = 0.91	1.747 mPa·s
313 K, 101 kPa, x2 = 0.95	1.287 mPa·s
313.15 K, 101 kPa, x1 = 0.05	1.311 mPa·s
313.15 K, 101 kPa, x1 = 0.07	1.54 mPa·s
313.15 K, 101 kPa, x1 = 0.1	1.84 mPa·s
313.15 K, 101 kPa, x1 = 0.2	2.453 mPa·s
313.15 K, 101 kPa, x1 = 0.3	2.615 mPa·s
313.15 K, 101 kPa, x1 = 0.4	2.618 mPa·s
313.15 K, 101 kPa, x1 = 0.5	2.534 mPa·s
323 K, 101 kPa, x2 = 0.1	1.471 mPa·s
323 K, 101 kPa, x2 = 0.3	1.623 mPa·s
323 K, 101 kPa, x2 = 0.5	1.809 mPa·s
323 K, 101 kPa, x2 = 0.65	1.889 mPa·s
323 K, 101 kPa, x2 = 0.75	1.85 mPa·s
323 K, 101 kPa, x2 = 0.91	1.306 mPa·s
323 K, 101 kPa, x2 = 0.95	0.9856 mPa·s
323.15 K, 100 kPa, x1 = 0.1	1.273 mPa·s
323.15 K, 100 kPa, x1 = 0.3	1.834 mPa·s
323.15 K, 100 kPa, x1 = 0.4	1.833 mPa·s
323.15 K, 100 kPa, x1 = 0.5	1.696 mPa·s
323.15 K, 100 kPa, x1 = 0.75	1.429 mPa·s
